Where two headings read alike, the source gives them in different places.
Legend:
HepG2 cells [1] = assay: ROS-Glo hydrogen peroxide (ROS) assay; assay type: cell-based, human
[2] = system: mitochondrial respiratory chain complex V; assay type: biochemical, rat
[3] = system: mitochondrial respiratory chain complex IV; assay type: biochemical, rat
HepG2 cells [4] = assay: Intracellular ATP content (cell viability) assay; assay type: cell-based, human; conditions: Homo sapiens, HepG2, 40 h
[5] = system: mitochondrial respiratory chain complex I; assay type: biochemical, rat; conditions: at 100μM
[6] = system: Nrf2/ARE (ARE-bla HepG2 cells); assay: ARE β-lactamase reporter gene assay; assay type: cell-based, human; conditions: 16 h incubation; mean±SD of three experiments
[7] = system: p53 (p53-bla HCT-116 cells); assay: p53 β-lactamase reporter gene assay; assay type: cell-based, human; conditions: 16 h incubation; mean±SD of three experiments
[8] = system: HeLa cells expressing YFP-Parkin; assay: Parkin translocation assay; assay type: cell-based, human
rat primary hepatocytes [9] = assay: MMP assay in rat primary hepatocytes; conditions: Rattus norvegicus, Hepatocyte
hNSC = assay: MMP assay in human neural stem cells (hNSC); assay type: cell-based; conditions: Homo sapiens, Neural stem cell, 1 h, read-out: hNSC IC50 (MMP)
[10] = system: Caenorhabditis elegans (Bristol N2); assay: C. elegans larval development and growth assay
HepG2 cells [11] = conditions: cited from earlier work
[12] = system: mitochondrial respiratory chain complex III; assay type: biochemical, rat
HepG2 cells [13] = assay: cells; conditions: Homo sapiens
[14] = target: T1, mitochondrial respiratory chain complex II (Rattus norvegicus, UniProt P21913+Q641Z9+Q6PCT8+Q920L2); assay: Respiratory chain complex II activity; assay type: biochemical; conditions: tested up to 100μM
T1 construct: Submitochondrial particles were prepared by subjecting the intact rat mitochondria, isolated as described above, to three successive freeze–thaw cycles; from tissue; host or cells: rat liver mitochondria (submitochondrial particles)
T1 sequence (Q920L2 35-656): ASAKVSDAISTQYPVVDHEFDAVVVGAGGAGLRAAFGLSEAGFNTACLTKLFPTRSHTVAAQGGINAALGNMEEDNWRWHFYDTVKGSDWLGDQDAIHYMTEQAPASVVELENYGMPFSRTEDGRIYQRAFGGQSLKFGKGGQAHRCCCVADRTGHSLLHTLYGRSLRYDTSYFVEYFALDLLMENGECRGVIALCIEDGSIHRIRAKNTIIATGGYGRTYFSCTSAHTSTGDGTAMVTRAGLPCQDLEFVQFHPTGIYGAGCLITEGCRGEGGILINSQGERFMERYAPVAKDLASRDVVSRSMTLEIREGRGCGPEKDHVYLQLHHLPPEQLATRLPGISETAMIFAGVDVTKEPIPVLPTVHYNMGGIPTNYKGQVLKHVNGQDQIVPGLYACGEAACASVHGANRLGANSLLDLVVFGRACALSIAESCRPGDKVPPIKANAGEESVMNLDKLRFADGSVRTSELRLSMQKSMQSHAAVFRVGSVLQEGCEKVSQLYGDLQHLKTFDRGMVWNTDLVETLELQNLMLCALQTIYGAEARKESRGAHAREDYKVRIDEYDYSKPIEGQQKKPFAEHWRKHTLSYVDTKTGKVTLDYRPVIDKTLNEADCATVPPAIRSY
T1 sequence (P21913 31-282): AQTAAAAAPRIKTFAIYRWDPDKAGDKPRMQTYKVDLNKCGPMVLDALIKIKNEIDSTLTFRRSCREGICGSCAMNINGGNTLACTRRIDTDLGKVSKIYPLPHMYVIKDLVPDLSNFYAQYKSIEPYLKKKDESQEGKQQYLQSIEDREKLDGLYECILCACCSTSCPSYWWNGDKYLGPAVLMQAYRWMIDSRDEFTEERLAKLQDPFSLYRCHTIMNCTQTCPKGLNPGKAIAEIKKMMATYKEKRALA
T1 sequence (Q641Z9 1-169): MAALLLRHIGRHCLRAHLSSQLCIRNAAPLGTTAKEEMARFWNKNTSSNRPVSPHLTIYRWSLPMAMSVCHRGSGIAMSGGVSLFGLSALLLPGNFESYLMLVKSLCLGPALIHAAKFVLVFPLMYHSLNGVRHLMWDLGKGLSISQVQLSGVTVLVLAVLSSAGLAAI
T1 sequence (Q6PCT8 57-159): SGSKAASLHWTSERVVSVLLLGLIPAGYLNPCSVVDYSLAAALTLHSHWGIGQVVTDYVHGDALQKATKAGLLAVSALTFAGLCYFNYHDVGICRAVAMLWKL

[15] = system: Caenorhabditis elegans strain PE255; assay: In vivo C. elegans ATP status assay
[16] = system: Caenorhabditis elegans (Bristol N2); conditions: Bristol N2 (wild type), Caenorhabditis elegans, in vivo
rat primary hepatocytes [17] = system: rat primary hepatocytes
[18] = system: isolated rat liver mitochondria; assay: Oxygen consumption, Clark-type oxygen electrode; assay type: biochemical

## CC[C@@H](C(=O)[C@@H](C)[C@@H](O)[C@H](C)CCc1ccc(C)c(O)c1C(=O)O)[C@H]1O[C@](CC)([C@H]2CC[C@](O)(CC)[C@H](C)O2)C[C@@H]1C [Lasalocid sodium, reference compound]
HepG2 cells [1]
  ROS (HepG2) EC50: Inactive
[2]
  Complex V % inhibition (activity call): Inactive
[3]
  Complex IV % inhibition (activity call): Inactive
HepG2 cells [4]; read-out: ATP (HepG2, galactose) IC50
  IC50: 35400 nM
HepG2 cells [4]; read-out: ATP (HepG2, glucose) IC50
  IC50: 30700 nM
[5]
  Complex I % inhibition: 18.3±6.97 at 100μM %
[6]
  ARE (HepG2) EC50: Inactive
[7]
  p53 (HCT-116) EC50: Inactive
[8]
  Parkin recruitment: Inactive
Rat primary hepatocytes [9]; 1 h, read-out: Rat hepatocytes IC50 (MMP)
  IC50: 1.27 µM
Rat primary hepatocytes [9]; read-out: MMP assays IC50 (µM) Rat Hepatocytes
  IC50: 1.3 ± 0.29 µM
hNSC
  IC50: 540 nM
[10]; 0.5 µM
  EXT: mean difference in nematode size relative to plate controls: 0.01876
[10]; 1 µM
  EXT: mean difference in nematode size relative to plate controls: -0.05443
[10]; 5 µM
  EXT: mean difference in nematode size relative to plate controls: 0.2782
[10]; 10 µM
  EXT: mean difference in nematode size relative to plate controls: 0.2152
[10]; 25 µM
  EXT: mean difference in nematode size relative to plate controls: 0.9725
[10]; 50 µM
  EXT: mean difference in nematode size relative to plate controls: 1.753
[10]; 75 µM
  EXT: mean difference in nematode size relative to plate controls: 1.778
[10]; 100 µM
  EXT: mean difference in nematode size relative to plate controls: 1.712
[10]; 0.5–100μM
  effect on larval growth (in words): inhibited
[10]; Caenorhabditis elegans, read-out: LEC EXT: lowest effect concentration for extinction, a measure of nematode size
  minimal effective concentration: 5 µM
HepG2 cells [11]
  MMP assays efficacy (%) qHTS-HepG2: -107±4%
HepG2 cells [11]; read-out: MMP assays IC50 (µM), qHTS-HepG2
  IC50: 1.14 ± 0.07 µM
[12]
  Complex III % inhibition (activity call): Inactive
HepG2 cells [13]; HepG2, 1 h, read-out: HepG2 IC50 Galactose (MMP)
  IC50: 1.58 µM
HepG2 cells [13]; HepG2, 1 h, read-out: HepG2 IC50 Glucose (MMP)
  IC50: 1.54 µM
HepG2 cells [13]; HepG2, read-out: MMP assays IC50 (µM) HepG2
  IC50: 1.38 µM
HepG2 cells [13]; HepG2, read-out: MMP assays efficacy (%) HepG2
  Emax: 99%
[14]
  Complex II % inhibition (activity call): Inactive
[15]; 0.5 µM
  LUM: mean difference in luminescence (ATP content) relative to plate controls: -0.09691
[15]; 1 µM
  LUM: mean difference in luminescence (ATP content) relative to plate controls: 0.04489
[15]; 5 µM
  LUM: mean difference in luminescence (ATP content) relative to plate controls: 0.262
[15]; 10 µM
  LUM: mean difference in luminescence (ATP content) relative to plate controls: 0.184
[15]; 25 µM
  LUM: mean difference in luminescence (ATP content) relative to plate controls: 0.7982
[15]; 50 µM
  LUM: mean difference in luminescence (ATP content) relative to plate controls: 0.8669
[15]; 75 µM
  LUM: mean difference in luminescence (ATP content) relative to plate controls: 1.247
[15]; 100 µM
  LUM: mean difference in luminescence (ATP content) relative to plate controls: 1.4191
[15]; 0.5–100μM
  effect on ATP content (in words): inhibited
[15]; Caenorhabditis elegans, read-out: LEC LUM: lowest effect concentration for luminescence, a measure of nematode ATP content
  minimal effective concentration: 25 µM
[16]
  LEC (lowest effect concentration), larval growth assay: ≤ 10 µM
Rat primary hepatocytes [17]
  MMP assays efficacy (%) Rat Hepatocytes: -105±1%
  Rat hepatocytes (efficacy) (MMP): 1.27±0.23 ( −95.6±2.35 ) %
[18]
  Potential Mechanism: Uncoupler + Inhibitor
[18]; 0.032 µM
  I-ADP, % of control (O2 consumption rate): 102 (33.0) % of control
  I-sub, % of control (O2 consumption rate): 114 (12.4) % of control
  II-ADP, % of control (O2 consumption rate): 87 (52.0) % of control
  II-sub, % of control (O2 consumption rate): 98 (20.1) % of control
[18]; 0.16 µM
  I-ADP, % of control (O2 consumption rate): 105 (34.0) % of control
  I-sub, % of control (O2 consumption rate): 118 (12.9) % of control
  II-ADP, % of control (O2 consumption rate): 72 (43.1) % of control
  II-sub, % of control (O2 consumption rate): 107 (22.1) % of control
[18]; 0.8 µM
  I-ADP, % of control (O2 consumption rate): 90 (29.2) % of control
  I-sub, % of control (O2 consumption rate): 120 (13.1) % of control
  II-ADP, % of control (O2 consumption rate): 57 (34.1) % of control
  II-sub, % of control (O2 consumption rate): 115 (23.6) % of control
[18]; 4 µM
  I-ADP, % of control (O2 consumption rate): 81 (26.3) % of control
  I-sub, % of control (O2 consumption rate): 164 (17.9) % of control
  II-ADP, % of control (O2 consumption rate): 60 (35.9) % of control
  II-sub, % of control (O2 consumption rate): 151 (31.2) % of control
[18]; 20 µM
  I-ADP, % of control (O2 consumption rate): 107 (34.7) % of control
  I-sub, % of control (O2 consumption rate): 347 (37.8) % of control
  II-ADP, % of control (O2 consumption rate): 48 (28.6) % of control
  II-sub, % of control (O2 consumption rate): 160 (33.0) % of control
[18]; 100 µM
  I-ADP, % of control (O2 consumption rate): 16 (8.1) % of control
  I-sub, % of control (O2 consumption rate): 32 (6.9) % of control
  II-ADP, % of control (O2 consumption rate): 20 (11.6) % of control
  II-sub, % of control (O2 consumption rate): 39 (13.7) % of control

Reference: publication PMC6112376, “Comprehensive Analyses and Prioritization of Tox21 10K Chemicals Affecting Mitochondrial Function by in-Depth Mechanistic Studies” (Environmental Health Perspectives, 2018)
